Patent US6156762A, “Indolomorphinan derivative and agent for curing and preventing cerebral disorder” (Toray Industries, Inc., priority 1997, dated 2000)

System: cultured nerve cells
Test: Action of protecting cultured nerve cells from glutamic acid toxicity (LDH leakage)
Type: cell-based, Wistar rat
Settings: rat fetal cerebral cortex cells, 10 mM glutamic acid, 24 hours, read-out: ED50 (the source's name)
Source text: It is known that when the blood flow to the brain is temporarily clogged due to cerebral ischemia, hypoxia, or an trauma, delayed cerebral neuronal death is induced [Document: Brain Research, Vol. 239, 57 (1982)]. A possible cause of such damage of the cerebral nerve cells is excitatory toxicity due to an excitatory neutotransmitter such as glutamic acid or the like, which is excessively released with ischemia [Document: Trends in Neuroscience, vol. 10, 299 (1987)]. […] This is a problem to be solved by the invention. This action was evaluated by using the in vitro evaluation system which will be described below.
A fetus was taken from the abdomen of a Wistar female rat on the 18 to 19th day of pregnancy under aseptic conditions, and the head of the fetus was opened to extract the brain. The brain was placed in an ice-cooled L-15 medium, and the cerebral cortex was separated under a microscope. The cerebral cortexes of about 30 rats were cut into pieces, and then suspended in 10 ml of a 0.25% trypsin solution and 0.2 ml of a 0.01% DNase solution, followed by culture at 37° C. for 30 minutes. Then, 2 ml of serum was added to the solution, and immediately the resultant mixture was centrifuged at 120 rpm for 2 minutes to separate the precipitates. To the precipitates was added 7 ml of a DF medium (a medium obtained by adding 20 nM of transferrin, 5 μg/ml of insulin, 20 nM of progesterone,60 nM of selenite, 50 U/ml of penicillin, and 50 U/ml of streptomycin to a mixture equivalent amounts of Dulbecco modified Eagle medium and F-12 medium), followed by 20 pipetting operations using a 10-ml plastic pipette to obtain a cell suspension. The cell suspension was filtered with nylon mesh (pore diameter 43 μm) to fractionate isolated cells. The thus-obtained isolated cells were diluted with a DF medium to a concentration of 6.0×10^5 cells/ml, and 500 μl of the diluted cells was inoculated in each of the 48 wells of a 48-well culture plate precoated with polylysine, followed by culture at 37° C. for 1 day in the presence of 5% of CO2. On the 2nd day, the medium was changed to a new DF medium, and 10 μl of a solution of 0.5M glutamic acid in distilled water was added to each of the wells (the final glutamic acid concentration was 10 mM), followed by further culture at 37° C. for 24 hours in the presence 5% of CO2. A test compound was dissolved in distilled water, 10% or 100% DMSO or 10% methanol, and 5 μl of the solution was added to each of the wells immediately before glutamic acid was added. As an index of nerve cell damage, the enzyme activity of lactic acid dehydrogenase (LDH) leaking from the damaged cells into the medium was measured. For each of the test compounds, the LDH leakage was measured at each of concentrations to determine a dose-response curve by the modified Cochran-Armitige method. The 50% effective dose (ED50) of each of the test compounds we determined from the curve.

SMILES	EC50 [nM]
NCCCn1c2c(c3ccccc31)C[C@@]1(O)[C@H]3Cc4ccc(O)c5c4[C@@]1(CCN3CC1CC1)[C@H]2O5 [Compound 24, 17-cyclopropylmethyl-3,14β-dihydroxy-6,7-dehydro-4,5α-epoxy-6,7,2',3'-[1'-(3-aminopropyl)indolo]morphinan]	800
Oc1ccc2c3c1O[C@H]1c4c(c5ccccc5n4Cc4ccccc4)C[C@@]4(O)[C@@H](C2)N(CC2CC2)CC[C@]314 [Compound 68, 17-cyclopropylmethyl-3,14β-dihydroxy-6,7-dehydro-4,5α-epoxy-6,7,2',3'-(1'-benzylindolo)morphinan]	91
Oc1ccc2c3c1O[C@H]1c4c(c5cc6c7c(cccc7c5n4Cc4ccccc4)CC6)C[C@@]4(O)[C@@H](C2)N(CC2CC2)CC[C@]314 [Compound 83, 17-cyclopropylmethyl-3,14β-dihydroxy-6,7-dehydro-4,5α-epoxy-6,7,2',3'-(1'-benzyl-5',6"-ethano-6',7'-benzoindolo)morphinan]	73
O=C(/C=C/c1cccc(C(F)(F)F)c1)NCCCn1c2c(c3ccccc31)C[C@@]1(O)[C@H]3Cc4ccc(O)c5c4[C@@]1(CCN3CC1CC1)[C@H]2O5 [Compound 63, 17-cyclopropylmethyl-3,14β-dihydroxy-6,7-dehydro-4,5α-epoxy-6,7,2',3'-[1'-[3-(3-trifluoromethylcinnamido)propyl]indolo]morphinan]	150
Oc1ccc2c3c1O[C@H]1c4[nH]c5c(cc(-c6ccccc6)c6ccccc65)c4C[C@@]4(O)[C@@H](C2)N(CC2CC2)CC[C@]314 [Compound 15, 17-cyclopropylmethyl-3,14β-dihydroxy-6,7-dehydro-4,5α-epoxy-6,7,2',3'-(5'-phenyl-6',7'-benzoindolo)morphinan]	150
CCCCCCCc1ccc2c3c([nH]c2c1)[C@@H]1Oc2c(O)ccc4c2[C@@]12CCN(CC1CC1)[C@H](C4)[C@]2(O)C3 [Compound 7, 17-cyclopropylmethyl-3,14β-dihydroxy-6,7-dehydro-4,5α-epoxy-6,7,2',3'-(6'-heptylindolo)morphinan]	200
Oc1ccc2c3c1O[C@H]1c4[nH]c5c6c(ccc5c4C[C@@]4(O)[C@@H](C2)N(CC2CC2)CC[C@]314)Cc1ccccc1-6 [Compound 22, 17-cyclopropylmethyl-3,14β-dihydroxy-6,7-dehydro-4,5α-epoxy-6,7,2',3'-(6',7',2",3"-indenoindolo)morphinan]	50
Cn1c2c(c3cc4c5c(cccc5c31)CC4)C[C@@]1(O)[C@H]3Cc4ccc(O)c5c4[C@@]1(CCN3CC1CC1)[C@H]2O5 [Compound 84, 17-cyclopropylmethyl-3,14β-dihydroxy-6,7-dehydro-4,5α-epoxy-6,7,2',3'-(1'-methyl-5',6"-ethano-6',7'-benzoindolo)morphinan]	39
Cc1cc2c3c([nH]c2c2ccccc12)[C@@H]1Oc2c(O)ccc4c2[C@@]12CCN(CC1CC1)[C@H](C4)[C@]2(O)C3 [Compound 13, 17-cyclopropylmethyl-3,14β-dihydroxy-6,7-dehydro-4,5α-epoxy-6,7,2',3'-(5'-methyl-6',7'-benzoindolo)morphinan]	93
Oc1ccc2c3c1O[C@H]1c4c(c5ccccc5n4CCCN=C=S)C[C@@]4(O)[C@@H](C2)N(CC2CC2)CC[C@]314 [Compound 59, 17-cyclopropylmethyl-3,14β-dihydroxy-6,7-dehydro-4,5α-epoxy-6,7,2',3'-[1'-(3-isothiocyanatopropyl)indolo]morphinan]	110
N#Cc1cc2c3c([nH]c2c2ccccc12)[C@@H]1Oc2c(O)ccc4c2[C@@]12CCN(CC1CC1)[C@H](C4)[C@]2(O)C3 [Compound 11, 17-cyclopropylmethyl-3,14β-dihydroxy-6,7-dehydro-4,5α-epoxy-6,7,2',3'-(5'-cyano-6',7'-benzoindolo)morphian]	138
Oc1ccc2c3c1O[C@H]1c4c(c5ccccc5n4-c4ccccc4)C[C@@]4(O)[C@@H](C2)N(CC2CC2)CC[C@]314 [Compound 4, 17-cyclopropylmethyl-3,14β-dihydroxy-6,7-dehydro-4,5α-epoxy-6,7,2',3'-(1'-phenylindolo)morphinan]	80
Cc1ccc(Cn2c3c(c4ccc5ccccc5c42)C[C@@]2(O)[C@H]4Cc5ccc(O)c6c5[C@@]2(CCN4CC2CC2)[C@H]3O6)cc1 [Compound 71]	19
O=C(/C=C/c1cccc(C(F)(F)F)c1)NCCCn1c2c(c3ccc4ccccc4c31)C[C@@]1(O)[C@H]3Cc4ccc(O)c5c4[C@@]1(CCN3CC1CC1)[C@H]2O5 [Compound 65, 17-cyclopropylmethyl-3,14β-dihydroxy-6,7-dehydro-4,5α-epoxy-6,7,2',3'-[1'-(3-(3-trifluoromethylcinnamamido)propyl)-6',7'-benzoindolo]morphinan]	110
Oc1ccc2c3c1O[C@H]1c4c(c5ccc6ccccc6c5n4CCCN=C=S)C[C@@]4(O)[C@@H](C2)N(CC2CC2)CC[C@]314 [Compound 60, 17-cyclopropylmethyl-3,14β-dihydroxy-6,7-dehydro-4,5α-epoxy-6,7,2',3'-[1'-(3-isothiocyanatopropyl)-6',7'-benzoindolo)morphinan]	93

System: middle cerebral artery ischemia model of rat
Test: Infarction inhibiting action in middle cerebral artery ischemia (MCAo-recirculation) model of rat
Type: in vivo
Settings: ip, 24 h, 3 mg/kg i.p. 10 minutes before occlusion and 1 hour after recirculation, infarction volume one day after, vs control group, read-out: Rate of inhibition of infarction
Source text: It is also known that, in this way, in the acute stage of cerebral infarction, the lesion proceeds to the peripheral tissue from the core of infarction, and death of the nerve cells is extended with the passage of several days. This possible not only extends and creates grave aftereffects, and causes loss of motor and mental function, but also finally critically influences on the life. As an in vivo experimental model of cerebral infarction which is capable of precisely evaluating the clinical effect of a medicine in conformity with clinical conditions of the disease of a patient of cerebral infarction, the middle cerebral artery occlusion (MCAo)-recirculation model comprising an embolus with a yarn using Wister rates may be used [Document: Japan Journal of Stroke, vol. 8, 1 (1986)]. […] This action was evaluated by applying the MCAo model by the method which will be described below.
In rats of 10 weeks old, after etherization, a median incision of the cervical region was made up to the right carotid artery bifurcation under 1.0% halothane anesthetization with care to preserve the vagus nerves. The common carotid artery and the external carotid artery were separated from the periphery connective tissue with the right carotid artery bifurcation as the center, and each of the arteries was ligated by a 6-0 silk yarn (Eto yarn). Further, a yarn was wound on the internal carotid artery origin in preparation for ligation and fixing after insertion of the embolus. Next, the common carotid artery was incised, and the embolus was inserted from the common carotid artery to the internal carotid artery by about 15 to 16 mm, and ligated and fixed to the internal carotid artery by the silk yarn at the end thereof near the nylon yarn. In this operation, the end of the embolus was inserted into the anterior cerebral artery by about 1 to 2 mm beyond the middle cerebral artery bifurcation, and the inlet of the middle cerebral artery was occluded by the body (resin part) of the embolus for 1 hours. In recirculation, the embolus with a yarn was removed to recirculate the blood flow to the middle cerebral artery. 3 mg/kg of each of test compounds was intraperitoneally administered 10 minutes before occlusion and 1 hour after recirculation of the blood flow. One day after occlusion and recirculation, the whole body was perfused with physiologic saline through the heart, and the brain was extracted. The extracted brain was cooled with ice and water for 5 minutes, and cut at intervals of 2.0 mm to form 7 sections of the cerebral coronal surface. Each of the sections was stained with TTC (Triphenyltetrazolium Chloride), and fixed by a 5% neutral buffer formalin solution. In each of the sections, the infarction area in the right cerebral hemisphere was measured by an image analyzer (Olympus), and the infarction was evaluated by volume (mm^3). The infarction volume was compared with the infarction volume of a control group to calculate the rate of inhibition of infarction.

SMILES	inhibition in vivo at 3 mg/kg [%]
Oc1ccc2c3c1O[C@H]1c4[nH]c5ccccc5c4C[C@@]4(O)[C@@H](C2)N(CC2CC2)CC[C@]314 [Compound 1, 17-cyclopropylmethyl-3,14β-dihydroxy-6,7-dehydro-4,5α-epoxy-6,7,2',3'-indolomorphinan]	23
O=C(CCCCCc1ccccc1)NCCCn1c2c(c3ccccc31)C[C@@]1(O)[C@H]3Cc4ccc(O)c5c4[C@@]1(CCN3CC1CC1)[C@H]2O5 [Compound 62, 17-cyclopropylmethyl-3,14β-dihydroxy-6,7-dehydro-4,5α-epoxy-6,7,2',3'-[1'-[3-(6-phenylhexanoamido)propyl]indolo]morphinan]	10
Oc1ccc2c3c1O[C@H]1c4[nH]c5c(ccc6ccccc65)c4C[C@@]4(O)[C@@H](C2)NCC[C@]314 [Compound 73, 3, 14β-dihydroxy-6,7-dehydro-4,5α-epoxy-6,7,2',3'-(6',7'-benzoindolo)morphinan]	34
COc1ccc2c3c1O[C@H]1c4[nH]c5ccc(C(C)(C)C)cc5c4C[C@@]4(O)[C@@H](C2)N(CC2CC2)CC[C@]314 [Compound 16, 17-cyclopropylmethyl-3-methoxy-14β-hydroxy-6,7-dehydro-4,5α-epoxy-6,7,2',3'-(5'-t-butylindolo)morphinan]	22
